Assay results reported in patent publication US20100152434A1, “Protein Kinase-binding Nucleosides and Associated Methods” (priority 2007, published 2010).
Where two headings read alike, the source gives them in different places.

Legend:
NCI-H322M [1] = details: NCI-H322M
HCT-15 [2] = system: HCT-15
OVCAR-3 [3] = system: OVCAR-3
CAKI-1 [4] = system: CAKI-1
NCI-H322M [5] = test: cells; details: Homo sapiens, NCI-H322M
HCT-15 [6] = test: cells; details: Homo sapiens
SF-539 = test: cells; details: Homo sapiens
SNB-19 = test: cells; details: Homo sapiens
SNB-75 = test: cells; details: Homo sapiens
M14 = test: cells; details: Homo sapiens
OVCAR-3 [7] = test: cells; details: Homo sapiens
OVCAR-5 = test: cells; details: Homo sapiens
OVCAR-8 = test: cells; details: Homo sapiens
A498 = test: cells; details: Homo sapiens
CAKI-1 [8] = test: cells; details: Homo sapiens
SN12C = test: cells; details: Homo sapiens
UO-31 = test: cells; details: Homo sapiens

CNC(=O)NC[C@H]1O[C@@H](n2cnc3c(NC(=O)Nc4ccccc4)ncnc32)[C@H](O[Si](C)(C)C(C)(C)C)[C@@H]1CC(=O)N(C)OC [Compound 13, 2′-O-(tert-Butyldimethylsilyl)-3′,5′-dideoxy-3′-[(N-methoxy-N-methylcarboxamido)methyl]-5′-[(N-methylcarbamoyl)amino]-N^6-(N-phenylcarbamoyl)adenosine]
TGI (NCI-H226): >1.00E−4 Molar | Percent Growth (NCI-H226; Log10 Concentration −4.0): 40% | Percent Growth (NCI-H226; Log10 Concentration −5.0): 66% | Percent Growth (NCI-H226; Log10 Concentration −6.0): 99% | Percent Growth (NCI-H226; Log10 Concentration −7.0): 111% | Percent Growth (NCI-H226; Log10 Concentration −8.0): 103% | TGI (NCI-H322M [1]): >1.00E−4 Molar | Percent Growth (NCI-H322M [1]; Log10 Concentration −4.0): 73% | Percent Growth (NCI-H322M [1]; Log10 Concentration −5.0): 90% | Percent Growth (NCI-H322M [1]; Log10 Concentration −6.0): 102% | Percent Growth (NCI-H322M [1]; Log10 Concentration −7.0): 98% | Percent Growth (NCI-H322M [1]; Log10 Concentration −8.0): 97% | TGI (NCI-H460): >1.00E−4 Molar | Percent Growth (NCI-H460; Log10 Concentration −4.0): 25% | Percent Growth (NCI-H460; Log10 Concentration −5.0): 44% | Percent Growth (NCI-H460; Log10 Concentration −6.0): 90% | Percent Growth (NCI-H460; Log10 Concentration −7.0): 93% | Percent Growth (NCI-H460; Log10 Concentration −8.0): 96% | TGI (NCI-H522): >1.00E−4 Molar | Percent Growth (NCI-H522; Log10 Concentration −4.0): 31% | Percent Growth (NCI-H522; Log10 Concentration −5.0): 51% | Percent Growth (NCI-H522; Log10 Concentration −6.0): 84% | Percent Growth (NCI-H522; Log10 Concentration −7.0): 87% | Percent Growth (NCI-H522; Log10 Concentration −8.0): 90% | TGI (HCT-116): >1.00E−4 Molar | Percent Growth (HCT-116; Log10 Concentration −4.0): 6% | Percent Growth (HCT-116; Log10 Concentration −5.0): 26% | Percent Growth (HCT-116; Log10 Concentration −6.0): 89% | Percent Growth (HCT-116; Log10 Concentration −7.0): 90% | Percent Growth (HCT-116; Log10 Concentration −8.0): 93% | TGI (HCT-15 [2]): >1.00E−4 Molar | Percent Growth (HCT-15 [2]; Log10 Concentration −4.0): 37% | Percent Growth (HCT-15 [2]; Log10 Concentration −5.0): 40% | Percent Growth (HCT-15 [2]; Log10 Concentration −6.0): 93% | Percent Growth (HCT-15 [2]; Log10 Concentration −7.0): 94% | Percent Growth (HCT-15 [2]; Log10 Concentration −8.0): 96% | TGI (HT29): >1.00E−4 Molar | Percent Growth (HT29; Log10 Concentration −4.0): 17% | Percent Growth (HT29; Log10 Concentration −5.0): 32% | Percent Growth (HT29; Log10 Concentration −6.0): 100% | Percent Growth (HT29; Log10 Concentration −7.0): 107% | Percent Growth (HT29; Log10 Concentration −8.0): 104% | TGI (KM12): >1.00E−4 Molar | Percent Growth (KM12; Log10 Concentration −4.0): 30% | Percent Growth (KM12; Log10 Concentration −5.0): 62% | Percent Growth (KM12; Log10 Concentration −6.0): 106% | Percent Growth (KM12; Log10 Concentration −7.0): 108% | Percent Growth (KM12; Log10 Concentration −8.0): 101% | TGI (UACC-257): >1.00E−4 Molar | Percent Growth (UACC-257; Log10 Concentration −4.0): 22% | Percent Growth (UACC-257; Log10 Concentration −5.0): 65% | Percent Growth (UACC-257; Log10 Concentration −6.0): 102% | Percent Growth (UACC-257; Log10 Concentration −7.0): 103% | Percent Growth (UACC-257; Log10 Concentration −8.0): 95% | TGI (UACC-62): >1.00E−4 Molar | Percent Growth (UACC-62; Log10 Concentration −4.0): 39% | Percent Growth (UACC-62; Log10 Concentration −5.0): 69% | Percent Growth (UACC-62; Log10 Concentration −6.0): 96% | Percent Growth (UACC-62; Log10 Concentration −7.0): 107% | Percent Growth (UACC-62; Log10 Concentration −8.0): 102% | TGI (OVCAR-3 [3]): >1.00E−4 Molar | Percent Growth (OVCAR-3 [3]; Log10 Concentration −4.0): 6% | Percent Growth (OVCAR-3 [3]; Log10 Concentration −5.0): 41% | Percent Growth (OVCAR-3 [3]; Log10 Concentration −6.0): 100% | Percent Growth (OVCAR-3 [3]; Log10 Concentration −7.0): 107% | Percent Growth (OVCAR-3 [3]; Log10 Concentration −8.0): 95% | TGI (ACHN): >1.00E−4 Molar | Percent Growth (ACHN; Log10 Concentration −4.0): 23% | Percent Growth (ACHN; Log10 Concentration −5.0): 55% | Percent Growth (ACHN; Log10 Concentration −6.0): 95% | Percent Growth (ACHN; Log10 Concentration −7.0): 102% | Percent Growth (ACHN; Log10 Concentration −8.0): 107% | TGI (CAKI-1 [4]): >1.00E−4 Molar | Percent Growth (CAKI-1 [4]; Log10 Concentration −4.0): 47% | Percent Growth (CAKI-1 [4]; Log10 Concentration −5.0): 57% | Percent Growth (CAKI-1 [4]; Log10 Concentration −6.0): 76% | Percent Growth (CAKI-1 [4]; Log10 Concentration −7.0): 72% | Percent Growth (CAKI-1 [4]; Log10 Concentration −8.0): 85% | GI50 (NCI-H322M [5]): > 100 µM | CC50 (NCI-H322M [5]; read-out: LC50): > 100 µM | GI50 (HCT-15 [6]; HCT-15): 6.47 µM | CC50 (HCT-15 [6]; HCT-15, read-out: LC50): > 100 µM | GI50 (SF-539; SF-539): 22.3 µM | CC50 (SF-539; SF-539, read-out: LC50): > 100 µM | GI50 (SNB-19; SNB-19): > 100 µM | CC50 (SNB-19; SNB-19, read-out: LC50): > 100 µM | GI50 (SNB-75; SNB-75): 12.7 µM | CC50 (SNB-75; SNB-75, read-out: LC50): > 100 µM | GI50 (M14; M14): 15.2 µM | CC50 (M14; M14, read-out: LC50): > 100 µM | GI50 (OVCAR-3 [7]; OVCAR-3): 7.11 µM | CC50 (OVCAR-3 [7]; OVCAR-3, read-out: LC50): > 100 µM | GI50 (OVCAR-5; OVCAR-5): 38.2 µM | CC50 (OVCAR-5; OVCAR-5, read-out: LC50): > 100 µM | GI50 (OVCAR-8; OVCAR-8): 9.02 µM | CC50 (OVCAR-8; OVCAR-8, read-out: LC50): > 100 µM | GI50 (A498; A498): 3.87 µM | CC50 (A498; A498, read-out: LC50): > 100 µM | GI50 (CAKI-1 [8]; CAKI-1): 53.8 µM | CC50 (CAKI-1 [8]; CAKI-1, read-out: LC50): > 100 µM | GI50 (SN12C): 85.3 µM | CC50 (SN12C; read-out: LC50): > 100 µM | GI50 (UO-31; UO-31): 7.79 µM | CC50 (UO-31; UO-31, read-out: LC50): > 100 µM
